Results on 1 molecule are retold here after patent US7049321B2, “Methods and pharmaceutical compositions for treatment of central and peripheral nervous system disorders and compounds useful therefor” (Israel Institute for Biological Research, priority 2002, dated 2006).

This experiment has as its system Aging microcebes. As to the kind of experiment: Effects in aging microcebes. The note with it: chronic treatment for 18 months. Format: in vivo. The text has this: Aging microcebes show similar cognitive deficits and cerebral lesions to those observed in aging humans and in AD patients. Thus this is a good animal model for AD, mimicing the three major hallmarks in AD {plaques (Aβ), paired helical filaments (hyperphophorylated and aggregated τ) and cognitive dysfunction}. This model may also be used to mimic MCI conducive to AD

Regarding `CC1=NCC2(CCN(C)CC2)S1` [AF150(S), 2,8-Dimethyl-1-thia-3,8-diaza-spiro[4.5]dec-2-ene], the Astrogliosis and inflammation entry was “decreased astrogliosis and inflammation”; the “Cognitive and behavioral impairments” value is “improved the cognitive and behavioral impairments”; the “Hyperphosphorylated τ, aggregated τ neurons, paired helical filaments” value is reported as “decreased hyperphosphorylated τ proteins”.
